Values of other authors in patent US20160243040A1, “Pharmaceutical Composition with Antiinflammatory Agents and Production Process” (LABORATORIO RAAM DE SAHUAYO, S.A. DE C.V., priority 2013, published 2016).

Key:
[1] = class by biological half-life
[2] = relative potency, cortisol = 1
[3] = relative potency, cortisol = 1; remark: listed apart in the source
[4] = applies only to oral or intravenous use

| dose excreted in urine (mainly as aceclofenac glucuronide and diclofenac, and its hydroxy metabolites) | tmax in presence of food (oral, presence of food) | tmax without food (oral, without food) | elimination half-life (single dose of 100 mg) | SMILES | Duration of action [1] | Anti-inflammatory potency [2] | Potency to retain Na+ [3] | Dose equivalents [4] |
| --- | --- | --- | --- | --- | --- | --- | --- | --- |
| – | – | – | – | C[C@@H]1C[C@H]2[C@@H]3CCC4=CC(=O)C=C[C@]4(C)[C@@]3(F)[C@@H](O)C[C@]2(C)[C@@]1(O)C(=O)CO [Dexamethasone] | P (P, prolonged (Biological half-life of 36 to 72 h)) | – | – | – |
| – | – | – | – | C[C@]12CCC(=O)C=C1CC[C@@H]1[C@@H]2C(=O)C[C@@]2(C)[C@H]1CC[C@]2(O)C(=O)CO [Cortisone] | B (B, short (Biological half-life of 8-12 h)) | 0.8 | 0.8 | 25 mg |
| – | – | – | – | C[C@]12CCC(=O)C=C1CC[C@H]1[C@@H]3CC[C@](O)(C(=O)CO)[C@@]3(C)C[C@H](O)[C@@]12F [Fludrocortisone] | I (I, intermediate (Biological half-life of 12-36 h)) | – | – | – |
| – | – | – | – | C[C@H]1C[C@@H]2[C@H]([C@@H](O)C[C@@]3(C)[C@H]2CC[C@]3(O)C(=O)CO)[C@@]2(C)C=CC(=O)C=C12 [6α-methyl prednisolone] | I (I, intermediate (Biological half-life of 12-36 h)) | 5 | 0.5 | 4 mg |
| – | – | – | – | C[C@H]1C[C@H]2[C@@H]3CCC4=CC(=O)C=C[C@]4(C)[C@@]3(F)[C@@H](O)C[C@]2(C)[C@@]1(O)C(=O)CO [Betamethasone] | P (P, prolonged (Biological half-life of 36 to 72 h)) | – | – | – |
| – | – | – | – | C[C@]12C=CC(=O)C=C1CC[C@@H]1[C@@H]2[C@@H](O)C[C@@]2(C)[C@H]1CC[C@]2(O)C(=O)CO [Prednisolone] | I (I, intermediate (Biological half-life of 12-36 h)) | 4 | 0.8 | 5 mg |
| – | – | – | – | C[C@]12CCC(=O)C=C1CC[C@@H]1[C@@H]2[C@@H](O)C[C@@]2(C)[C@H]1CC[C@]2(O)C(=O)CO [Cortisol] | B (B, short (Biological half-life of 8-12 h)) | 1 | 1 | 20 mg |
| Approximately 70% | 3.5 h | 2.0 h | 6.2 h | O=C(O)COC(=O)Cc1ccccc1Nc1c(Cl)cccc1Cl [aceclofenac, Aceclofenac] | – | – | – | – |
| – | – | – | – | C[C@]12C=CC(=O)C=C1CC[C@H]1[C@@H]3C[C@@H](O)[C@](O)(C(=O)CO)[C@@]3(C)C[C@H](O)[C@@]12F [Tiamcinolone] | I (I, intermediate (Biological half-life of 12-36 h)) | 5 | 0 | 4 mg |
